The record followed here is US6596257B2, “Detection and visualization of neoplastic tissues and other tissues” (Prolume, Ltd., priority 1996, dated 2003).

Series [1] is classed as physicochemical. The source says:
Coelenterazine is not terribly soluble in non-irritant vehicles. Coelenterazine is soluble to at least to a concentration of 200 micrograms/mL in a solution of 2% (w/v) PEG 400 containing about 0.8% (w/v) NaCl. Although this solution is slightly hypertonic, it is not an irritant for vehicle purposes.

Series [2] deals with mice. Description: Repeated administration toxicology: gross signs of toxicity in behavior. In kind it is in vivo, mouse. Conditions: 1 mg/kg i.p., daily administration for three days, n=6. The source says:
[…] Mice are examined over the course of the study for any gross signs of toxicity as evidenced in their behavior. At the end of the one-week period, blood which is collected by cardiac puncture immediately prior to sacrifice. Animals are sacrificed and ten different tissue samples are removed post mortem from each animal. Isolated tissues are fixed, stained, blocked and sectioned. The pathology of the tissue samples will be analyzed and the toxicology data are compiled.

For the substance coelenterazine, the “solubility (soluble to at least a concentration of)” value in series [1] is listed as not below 200 micrograms/mL. Besides, the gross behavior changes entry in series [2] is reported as “no gross behavior changes”.
